The text below walks through data of publication PMC9596378, “Discovery and molecular basis of subtype-selective cyclophilin inhibitors” (Nature Chemical Biology, 2022).

SMILES strings stand for the structures. Where “and” joins values, the source holds several entries; their conditions need not be identical. Equal entries are not always repeated. Where two headings read alike, the source gives them in different places.

One test addresses CypD (Homo sapiens, UniProt P30405). The experiment in a line: Chymotrypsin coupled prolyl-isomerase assay.
In a further test the target is T1, CypB (Homo sapiens, UniProt P23284).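 As to CypB prolyl-isomerase raw dose-response reading (Fig. 6c): observed rate constant per well from one-phase association fit in s−1.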
T1 construct: PPIB (UniProtKB Entry P23284: residues 34–216); His6 with TEV site (2BT vector leader) (N); made in house; host or cells: E. coli BL21(DE3)
T1 sequence (P23284 34-216): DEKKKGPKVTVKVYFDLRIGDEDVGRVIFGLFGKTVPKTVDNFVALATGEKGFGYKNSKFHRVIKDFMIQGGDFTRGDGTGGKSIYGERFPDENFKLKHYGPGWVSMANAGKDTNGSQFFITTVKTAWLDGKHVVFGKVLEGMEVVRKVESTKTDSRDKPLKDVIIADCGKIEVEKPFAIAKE
The experiment in a line: biochemical. The essentials: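 5 nM Cyp, HEPES pH 7.3/NaCl/Triton buffer, 2–3 °C; cpd 5 min, chymotrypsin 25 µM 5 min, then Suc-AAPF-AMC 5 µM in LiCl/TFE. Kinetic fluorescence 330 s. Per-well rate constants, normalized, IC50 from nonlinear fit.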

A further test has as its target T2, PPWD1 (Homo sapiens, UniProt Q96BP3).
T2 construct: PPWD1 (UniProtKB Entry Q96BP3: residues 473–646); host or cells: E. coli BL21(DE3)
T2 sequence (Q96BP3 473-646): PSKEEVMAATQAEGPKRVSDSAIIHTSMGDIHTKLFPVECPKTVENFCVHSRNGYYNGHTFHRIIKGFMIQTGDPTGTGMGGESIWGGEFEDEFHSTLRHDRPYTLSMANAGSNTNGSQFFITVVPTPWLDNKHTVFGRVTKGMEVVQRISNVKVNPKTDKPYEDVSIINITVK
The experiment in a line: Chymotrypsin coupled prolyl-isomerase assay. It is filed as biochemical.

[1] abbreviates: Wild-Type Cyclophilin Prolyl Isomerase Inhibition IC50 Values, CypD, wild-type CypD.
Setting [2] is: wild-type CypB, read-out: Wild-Type Cyclophilin Prolyl Isomerase Inhibition IC50 Values, CypB.
Setting [3] is: wild-type PPWD1, read-out: Wild-Type Cyclophilin Prolyl Isomerase Inhibition IC50 Values, PPWD1.
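For CypD prolyl-isomerase raw dose-response reading (Fig. 6c) in this document: observed rate constant per well from one-phase association fit in s−1.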
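For PPWD1 prolyl-isomerase raw dose-response reading (Fig. 6c) in this document: Per-well observed rate constant from one-phase association fit in s−1.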

CypD, sequence (P30405 45-207): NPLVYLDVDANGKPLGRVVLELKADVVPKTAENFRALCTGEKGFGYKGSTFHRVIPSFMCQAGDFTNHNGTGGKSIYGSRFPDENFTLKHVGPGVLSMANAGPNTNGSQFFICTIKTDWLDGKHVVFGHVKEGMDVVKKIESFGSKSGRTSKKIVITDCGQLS

Regarding `NC(=O)C1CCNC(=O)C=CC(=O)N2CCCC(Cc3ccccc3)(C2)C(=O)NC(Cc2ccc(-c3ccc(C=O)c(B(O)O)c3)cc2)C(=O)NCc2ccccc2CC(=O)N1` (centres unmarked) [Compound C3A], the IC50 is 600 ± 100 nM against CypD; 700 ± 300 nM against CypD (IC50 CypD, Independent replicate 1, mean±SEM of 3 technical replicates); 600 ± 300 nM against CypD (IC50 CypD, Independent replicate 2); 410 ± 80 nM against CypD (IC50 CypD, Independent replicate 3); roughly 700 nM on CypD (IC50 CypD, Independent replicate 4); 600 nM against CypD (setting [1]). For the same compound, the half-maximal inhibitory concentration (IC50) on CypB (Independent replicate 1, read-out: IC50 CypB) is roughly 3 µM; on CypB (Independent replicate 2, read-out: IC50 CypB) it was 7 ± 3 µM; at CypB (Independent replicate 3, read-out: IC50 CypB), 3 ± 1 µM; on CypB (Independent replicate 4, read-out: IC50 CypB), 3 ± 2 µM; on CypB (setting [2]) it was 4 µM; at PPWD1 (Independent replicate 1, read-out: IC50 PPWD1), greater than 10 µM. In addition, the IC50 worked out at 8 ± 4 µM on PPWD1 (Independent replicate 2, read-out: IC50 PPWD1); 6 ± 2 µM at PPWD1 (Independent replicate 3, read-out: IC50 PPWD1); 9 ± 3 µM on PPWD1 (Independent replicate 4, read-out: IC50 PPWD1); 8 ± 2 µM at PPWD1 (prolyl-isomerase inhibition, 5 nM cyclophilin, read-out: IC50 PPWD1); 8 µM at PPWD1 (setting [3]). In addition, the “CypD prolyl-isomerase raw dose-response reading (Fig. 6c)” value is 0.06909 and 0.06564 and 0.08467 on CypD (Dose 0.00114312 µM); 0.0763 and 0.06566 and 0.07012 on CypD (Dose 0.00342936 µM); 0.04911 and 0.0434 and 0.06663 and 0.05943 and 0.05791 and 0.04481 at CypD (Dose 0.00457247 µM); 0.06833 and 0.05597 and 0.06694 at CypD (Dose 0.0102881 µM); 0.07034 and 0.05622 and 0.06 at CypD (Dose 0.0308642 µM); 0.05515 and 0.05553 and 0.04718 and 0.06514 and 0.05753 and 0.05809 and 0.04157 at CypD (Dose 0.0411523 µM). Besides, the “CypD prolyl-isomerase raw dose-response reading (Fig. 6c)” value on CypD (Dose 0.0925926 µM) was 0.06297 and 0.05517 and 0.06275; on CypD (Dose 0.277778 µM), 0.05848 and 0.04977 and 0.05604; on CypD (Dose 0.833333 µM) it was 0.04291 and 0.04333 and 0.04298; on CypD (Dose 2.5 µM), 0.03189 and 0.02949 and 0.03114. Further, the “CypB prolyl-isomerase raw dose-response reading (Fig. 6c)” value on CypB (Dose 0.00114312 µM) is 0.06934 and 0.06783 and 0.08183; on CypB (Dose 0.00342936 µM), 0.07621 and 0.06975 and 0.07172; on CypB (Dose 0.0102881 µM), 0.07116 and 0.04746 and 0.08093; on CypB (Dose 0.0308642 µM) it was 0.07891 and 0.06745 and 0.0815; on CypB (Dose 0.0925926 µM) it was 0.06054 and 0.05873 and 0.07182; at CypB (Dose 0.277778 µM), 0.07925 and 0.05977 and 0.05725. Moreover, the “CypB prolyl-isomerase raw dose-response reading (Fig. 6c)” value on CypB (Dose 0.833333 µM) was 0.07516 and 0.05333 and 0.06224; at CypB (Dose 2.5 µM) it was 0.05113 and 0.04833 and 0.05428. Moreover, the “PPWD1 prolyl-isomerase raw dose-response reading (Fig. 6c)” value on PPWD1 (Dose 0.00457247 µM) is 0.0469 and 0.04534 and 0.05629; at PPWD1 (Dose 0.0137174 µM) it was 0.04565 and 0.04397 and 0.06065; at PPWD1 (Dose 0.0411523 µM) it was 0.05156 and 0.0487 and 0.05013; at PPWD1 (Dose 0.123457 µM), 0.04255 and 0.04648 and 0.048; at PPWD1 (Dose 0.37037 µM) it was 0.04707 and 0.04395 and 0.05999; on PPWD1 (Dose 1.11111 µM) it was 0.04661 and 0.0432 and 0.04546. The “PPWD1 prolyl-isomerase raw dose-response reading (Fig. 6c)” value on PPWD1 (Dose 3.33333 µM) was 0.03786 and 0.03919 and 0.04546; at PPWD1 (Dose 10 µM), 0.02858 and 0.03234 and 0.0406; on PPWD1 (Dose 16.6667 µM), 0.02581 and 0.0305 and 0.02503 and 0.03058 and 0.01822 and 0.02069 and 0.01922 and 0.02384.
Turning to `NC(=O)[C@@H]1CCNC(=O)/C=C/C(=O)N2CCC[C@](Cc3ccccc3)(C2)C(=O)N[C@@H](Cc2ccc(-c3cccc(B(O)O)c3)cc2)C(=O)NCc2ccccc2CC(=O)N1` [Compound C6A], the IC50 was 1100 nM on CypD (read-out: Wild-Type Cyclophilin Prolyl Isomerase Inhibition IC50 Values, CypD, wild-type CypD); roughly 8 µM on CypB (prolyl-isomerase inhibition, 5 nM cyclophilin, read-out: IC50 CypB); 8 µM on CypB (setting [2]); greater than 10 µM at PPWD1 (setting [3]).
`NCCOCCNC(=O)C1CCNC(=O)C=CC(=O)N2CCCC(C2)C(=O)NC(Cc2ccco2)C(=O)NCc2ccccc2CC(=O)N1` (centres unmarked) [JOMBt]: the half-inhibitory concentration (IC50) is 17000 nM against CypD; 17000 ± 2000 nM against CypD (IC50 CypD trans, trans olefin isomer); 17000 nM at CypD (setting [1]); 5 µM on CypB (setting [2]); greater than 100 µM on PPWD1 (setting [3]).
